Data taken from patent publication US11434212B2, “Bicyclic compound as a caspase inhibitor” (CHIA TAI TIANQING PHARMACEUTICAL GROUP CO., LTD., priority 2017, dated 2022).

Legend:
Assay type in all cases: biochemical
Conditions in all cases: fluorogenic substrate 50 μM; test concentrations 1000 nM to 0.32 nM
[1] = molecular target: T1, Caspase-1 (Homo sapiens, UniProt P29466); assay: In vitro inhibitory activity on Caspase-1 (BioVision Caspase-1 Inhibitor Screening Kit)
T1 construct: purchased BioVision K151-100
T1 sequence (P29466 120-297 limits assumed): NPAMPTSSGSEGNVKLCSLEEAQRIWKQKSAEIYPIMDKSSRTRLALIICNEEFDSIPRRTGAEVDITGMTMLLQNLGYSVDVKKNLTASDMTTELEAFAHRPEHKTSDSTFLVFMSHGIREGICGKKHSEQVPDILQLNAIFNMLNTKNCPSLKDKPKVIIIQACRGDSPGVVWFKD
T1 sequence (P29466 317-404 limits assumed): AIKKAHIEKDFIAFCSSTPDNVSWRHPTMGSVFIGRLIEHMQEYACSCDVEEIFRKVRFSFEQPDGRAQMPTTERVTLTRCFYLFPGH
Experimental: (§1) Caspase Inhibitor Screening Kit for BioVision was used in this experiment to test the inhibitory activity of the test compounds on Caspase.
Caspase-1 Inhibitor Screening Kit (BioVision #K151-100)
(§2) Note: Each caspase enzymatic experiment uses the reagents in corresponding kit thereof. Each enzyme was dissolved in 550 μl of the corresponding 2× reaction buffer, sub-packed and stored at −80° C., respectively.
(§3) 1) The compound was diluted to a 200*test concentration with DMSO via the multiple dilution, then to a 2*test concentration with ddH2O, and added to a 384-well experimental plate at 12.5 μl per well. Test compounds and control compounds were tested at 6 concentration points, test concentrations ranging from 1000 nM to 0.32 nM. The ddH2O containing 1% DMSO was added to the 0% inhibition control well, and a high concentration of the control compound was added to the 100% inhibition control well (final concentration: 5 μM).
(§4) 2) 2× reaction buffer containing 10 mM DTT was prepared. The enzyme caspase stock solution was diluted 5-fold with 2× reaction buffer containing 10 mM DTT and added to a 384-well experimental plate at 6.25 μl per well. After being mixed, the enzyme and compounds were incubated at 37° C. for 30 minutes.
(§5) 3) The fluorogenic substrate of the enzyme caspase was diluted 5-fold with 2× reaction buffer containing 10 mM DTT, and then added to a 384-well experimental plate at 6.25 μl per well. The total reaction volume was 25 μl, the final concentration of the substrate was 50 μM, and the final concentration of DMSO was 0.5%. After the substrate was added, the 384-well experimental plate was incubated at 37° C. for 30 minutes.
(§6) 4) The fluorescence intensity (excitation light wavelength was 400 nm, emission light wavelength was 505 nm) was measured by using a multi-function microplate reader. Fluorescence intensity was used to calculate the inhibitory effect of the compounds on Caspase. GraphPad Prism software was used for fitting compound inhibition curves and calculating IC50 values.

[2] = molecular target: T2, Caspase-3 (Homo sapiens, UniProt P42574); assay: In vitro inhibitory activity on Caspase-3 (BioVision Caspase-3 Inhibitor Screening Kit)
T2 construct: purchased BioVision K153-100
T2 sequence (P42574 29-175 limits assumed): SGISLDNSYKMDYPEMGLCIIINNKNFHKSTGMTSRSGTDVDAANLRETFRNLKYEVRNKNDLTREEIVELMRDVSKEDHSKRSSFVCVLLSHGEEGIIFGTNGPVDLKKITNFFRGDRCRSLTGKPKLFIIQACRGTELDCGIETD
T2 sequence (P42574 176-277 limits assumed): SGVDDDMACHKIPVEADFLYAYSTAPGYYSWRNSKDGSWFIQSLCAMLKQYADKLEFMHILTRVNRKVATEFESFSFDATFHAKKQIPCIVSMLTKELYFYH
Experimental: as §1
Caspase-3 Inhibitor Screening Kit (BioVision #K153-100)
as §2, §3, §4, §5, §6

[3] = molecular target: T3, Caspase-8 (Homo sapiens, UniProt Q14790); assay: In vitro inhibitory activity on Caspase-8 (BioVision Caspase-8 Inhibitor Screening Kit)
T3 construct: purchased BioVision K158-100
Experimental: as §1
Caspase-8 Inhibitor Screening Kit (BioVision #K158-100)
as §2, §3, §4, §5, §6

T3 sequence (Q14790 217-374 limits assumed): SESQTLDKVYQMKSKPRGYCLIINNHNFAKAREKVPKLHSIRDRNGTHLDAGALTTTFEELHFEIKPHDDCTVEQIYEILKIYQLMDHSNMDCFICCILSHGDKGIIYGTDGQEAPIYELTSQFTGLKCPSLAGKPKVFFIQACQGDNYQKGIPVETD
T3 sequence (Q14790 385-479 limits assumed): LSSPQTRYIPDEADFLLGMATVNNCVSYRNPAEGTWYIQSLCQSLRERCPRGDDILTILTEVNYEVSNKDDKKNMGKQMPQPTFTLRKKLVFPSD

`C[C@H](NC(=O)c1cc(-c2ccccc2Cl)no1)C(=O)N[C@@H](CC(=O)O)C(=O)COc1c(F)c(F)cc(F)c1F` [Example 17] showed an IC50 [1] of 4.2 nM, an IC50 [2] of 9.5 nM and an IC50 [3] of 31.4 nM.

`C[C@H](NC(=O)c1cc(-c2ccccc2Cl)on1)C(=O)N[C@H](CC(=O)O)C(=O)COc1c(F)c(F)cc(F)c1F` [Example 18] showed an IC50 [1] of 7.5 nM, an IC50 [2] of 26.1 nM and an IC50 [3] of 62.1 nM.
